In patent publication US9790215B2 (FLATLEY DISCOVERY LAB, LLC, priority 2013, dated 2017):

Biological target: T1, human ΔF508-CFTR (Homo sapiens, UniProt P13569, DEL508-508)
T1 construct: expressed in transfected cells
Experiment: CFTR-YFP High Throughput Assay (YFP halide flux in FRT cells)
Assay type: cell-based
Conditions: FRT cells expressing human ΔF508-CFTR and YFP; forskolin stimulated
How it was run: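 FRT cells stably co-expressing human ΔF508-CFTR and halide-sensitive YFP-H148Q/I152L were treated with compound […] for 24–26 h at 37 °C (corrector mode), washed, then stimulated with 20 μM forskolin plus 30 μM potentiator P3 for 60–120 min at room temperature. Iodide-induced YFP quench (ex 500/em 540 nm) rates came from least-squares fitting.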

T1 sequence (P13569 with tags, fused parts or gaps DEL508-508): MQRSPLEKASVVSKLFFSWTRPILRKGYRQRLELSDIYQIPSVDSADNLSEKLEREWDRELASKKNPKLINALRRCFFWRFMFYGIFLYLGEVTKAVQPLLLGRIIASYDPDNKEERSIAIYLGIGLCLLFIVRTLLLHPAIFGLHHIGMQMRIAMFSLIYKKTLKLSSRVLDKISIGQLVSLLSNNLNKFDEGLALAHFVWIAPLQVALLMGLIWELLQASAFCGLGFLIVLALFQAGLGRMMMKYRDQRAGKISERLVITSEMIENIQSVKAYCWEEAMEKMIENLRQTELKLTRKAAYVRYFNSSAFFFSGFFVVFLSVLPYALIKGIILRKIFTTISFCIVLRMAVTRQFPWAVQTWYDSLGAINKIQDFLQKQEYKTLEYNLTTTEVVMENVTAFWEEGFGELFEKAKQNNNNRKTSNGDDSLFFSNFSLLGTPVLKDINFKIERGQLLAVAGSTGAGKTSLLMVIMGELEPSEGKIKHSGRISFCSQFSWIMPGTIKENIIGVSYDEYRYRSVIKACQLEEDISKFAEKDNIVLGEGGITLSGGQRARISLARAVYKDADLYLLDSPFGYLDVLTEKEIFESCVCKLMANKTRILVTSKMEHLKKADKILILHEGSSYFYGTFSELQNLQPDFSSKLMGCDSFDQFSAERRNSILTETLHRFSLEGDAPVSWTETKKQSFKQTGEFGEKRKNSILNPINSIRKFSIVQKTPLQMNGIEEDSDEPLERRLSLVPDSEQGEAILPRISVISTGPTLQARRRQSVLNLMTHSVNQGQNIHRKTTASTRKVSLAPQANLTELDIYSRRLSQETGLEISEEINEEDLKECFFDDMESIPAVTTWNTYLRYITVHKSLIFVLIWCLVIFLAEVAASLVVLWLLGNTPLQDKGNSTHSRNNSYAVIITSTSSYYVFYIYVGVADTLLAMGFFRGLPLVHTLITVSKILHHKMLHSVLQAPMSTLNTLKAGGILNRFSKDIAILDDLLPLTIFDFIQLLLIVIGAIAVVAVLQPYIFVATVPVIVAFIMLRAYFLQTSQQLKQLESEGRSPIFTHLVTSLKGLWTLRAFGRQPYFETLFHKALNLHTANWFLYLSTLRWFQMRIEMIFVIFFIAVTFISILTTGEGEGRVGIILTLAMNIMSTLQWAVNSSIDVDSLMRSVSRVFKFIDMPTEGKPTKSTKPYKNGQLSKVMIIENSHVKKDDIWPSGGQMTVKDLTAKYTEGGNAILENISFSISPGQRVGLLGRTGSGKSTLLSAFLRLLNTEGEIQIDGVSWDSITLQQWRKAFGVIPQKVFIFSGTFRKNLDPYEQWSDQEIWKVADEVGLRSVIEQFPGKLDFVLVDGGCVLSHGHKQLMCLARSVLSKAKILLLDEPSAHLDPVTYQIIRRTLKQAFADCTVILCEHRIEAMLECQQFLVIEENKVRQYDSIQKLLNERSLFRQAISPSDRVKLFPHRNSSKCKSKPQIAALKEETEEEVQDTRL

EC50 [µM] | SMILES
< 10 | CCN(C(=O)Cn1ncc2c(c1=O)c1ccccc1n2Cc1ccncc1)c1ccc2c(c1)OC(F)(F)O2 [Example 97, N-(2,2-difluorobenzo[d] [1,3]dioxol-5-yl)-N-ethyl-2-(1-oxo-5-(pyridin-4-ylmethyl)-1H-pyridazino[4,5-b]indol-2(5H)-yl)acetamide]
< 10 | Cc1ccc(-n2nc(C(=O)N3CCCCC3)c3c4ccccc4n(C)c3c2=O)cc1 [Example 101, 5-methyl-1-(piperidine-1-carbonyl)-3-p-tolyl-3H-pyridazino[4,5-b]indol-4(5H)-one]
< 10 | CCN(C(=O)c1nn(-c2ccccc2)c(=O)c2c1c1ccccc1n2C)c1ccncn1 [Example 102, N-ethyl-5-methyl-4-oxo-3-phenyl-N-(pyrimidin-4-yl)-4,5-dihydro-3H-pyridazino[4,5-b]indole-1-carboxamide]
< 10 | Cc1ccc(-n2nc(C(=O)N(c3ccccc3)C(C)C)c3c4ccccc4n(C)c3c2=O)cc1 [Example 103, N-isopropyl-5-methyl-4-oxo-N-phenyl-3-(p-tolyl)-4,5-dihydro-3H-pyridazino[4,5-b]indole-1-carboxamide]
< 10 | Cc1ccc(-n2nc(C(=O)N(c3ccccc3)C3CC3)c3c4ccccc4n(C)c3c2=O)cc1 [Example 104, N-cyclopropyl-5-methyl-4-oxo-N-phenyl-3-(p-tolyl)-4,5-dihydro-3H-pyridazino[4,5-b]indole-1-carboxamide]
< 10 | Cc1ccc(-n2nc(C(=O)N(CC#N)c3ccccc3)c3c4ccccc4n(C)c3c2=O)cc1 [Example 105, N-(cyanomethyl)-5-methyl-4-oxo-N-phenyl-3-(p-tolyl)-4,5-dihydro-3H-pyridazino[4,5-b]indole-1-carboxamide]
< 10 | CCN(CC)C(=O)c1nn(-c2ccc(C)cc2)c(=O)c2c1c1ccccc1n2C [Example 106, N,N-diethyl-5-methyl-4-oxo-3-(p-tolyl)-4,5-dihydro-3H-pyridazino[4,5-b]indole-1-carboxamide]
< 10 | CCN(C(=O)c1nn(-c2ccc(C)cc2)c(=O)c2c1c1ccccc1n2C)c1ccccn1 [Example 107, N-ethyl-5-methyl-4-oxo-N-(pyridin-2-yl)-3-(p-tolyl)-4,5-dihydro-3H-pyridazino[4,5-b]indole-1-carboxamide]
< 10 | CCN(C(=O)c1nn(-c2ccc(C)cc2)c(=O)c2c1c1ccccc1n2C)c1cccnc1 [Example 108, N-ethyl-5-methyl-4-oxo-N-(pyridin-3-yl)-3-(p-tolyl)-4,5-dehydro-3H-pyridazino[4,5-b]indole-1-carboxamide]
< 10 | CCN(C(=O)c1nn(-c2ccccc2)c(=O)c2c1c1ccccc1n2C)c1ccncc1 [Example 109, N-ethyl-5-methyl-4-oxo-3-phenyl-N-(pyridin-4-yl)-4,5-dihydro-3H-pyridazino[4,5-b]indole-1-carboxamide]
< 10 | Cc1ccc(-n2nc(C(=O)N3CCCc4ccccc43)c3c4ccccc4n(C)c3c2=O)cc1 [Example 110, 5-methyl-1-(1,2,3,4-tetrahydroquinoline-1-carbonyl)-3-(p-tolyl)-3H-pyridazino[4,5-b]indol-4(5H)-one]
< 10 | CCN(C(=O)c1nn(-c2ccc(C)cc2)c(=O)c2c1c1ccccc1n2C)C1CC1 [Example 111, N-cyclopropyl-N-ethyl-5-methyl-4-oxo-3-(p-tolyl)-4,5-dihydro-3H-pyridazino[4,5-b]indole-1-carboxamide]
< 10 | Cc1ccc(-n2nc(C(=O)N3CCN(Cc4ccccc4)CC3)c3c4ccccc4n(C)c3c2=O)cc1 [Example 112, 1-(4-benzylpiperazine-1-carbonyl)-5-methyl-3-(p-tolyl)-3H-pyridazino[4,5-b]indol-4(5H)-one]
> 20 | CCN(C(=O)c1nn(-c2ccccc2)c(=O)c2c1c1ccccc1n2C)c1ncccn1 [Example 113, N-ethyl-5-methyl-4-oxo-3-phenyl-N-(pyrimidin-2-yl)-4,5-dihydro-3H-pyridazino[4,5-b]indole-1-carboxamide]
> 20 | Cc1ccc(-n2nc(C(=O)N(CC(=O)O)c3ccccc3)c3c4ccccc4n(C)c3c2=O)cc1 [Example 114, 2-(5-methyl-4-oxo-N-phenyl-3-(p-tolyl)-4,5-dihydro-3H-pyridazino[4,5-b]indole-1-carboxamido) acetic acid]
10 to 20 | CCN(C(=O)c1nn(-c2ccccc2)c(=O)c2c1c1ccccc1n2C)c1ncnc2c1cnn2C [Example 115, N-ethyl-5-methyl-N-(1-methyl-1H-pyrazolo[3,4-d]pyrimidin-4-yl)-4-oxo-3-phenyl-4,5-dihydro-3H-pyridazino[4,5-b]indole-1-carboxamide]
< 10 | CCN(C(=O)c1nn(-c2ccccn2)c(=O)c2c1c1ccccc1n2C)c1ccccc1 [Example 118, N-ethyl-5-methyl-4-oxo-N-phenyl-3-(pyridin-2-yl)-4,5-dihydro-3H-pyridazino[4,5-b]indole-1-carboxamide]
< 10 | CCN(C(=O)c1nn(-c2cccnc2)c(=O)c2c1c1ccccc1n2C)c1ccccc1 [Example 119]
< 10 | CCN(C(=O)c1nn(-c2ccncc2)c(=O)c2c1c1ccccc1n2C)c1ccccc1 [Example 120, N-ethyl-5-methyl-4-oxo-N-phenyl-3-(pyridin-4-yl)-4,5-dihydro-3H-pyridazino[4,5-b]indole-1-carboxamide]
< 10 | CCN(C(=O)c1nn(-c2nccs2)c(=O)c2c1c1ccccc1n2C)c1ccccc1 [Example 121, N-ethyl-5-methyl-4-oxo-N-phenyl-3-(thiazol-2-yl)-4,5-dihydro-3H-pyridazino[4,5-b]indole-1-carboxamide]
10 to 20 | CCN(C(=O)c1nn(-c2ncccn2)c(=O)c2c1c1ccccc1n2C)c1ccccc1 [Example 122, N-ethyl-5-methyl-4-oxo-N-phenyl-3-(pyrimidin-2-yl)-4,5-dihydro-3H-pyridazino[4,5-b]indole-1-carboxamide]
10 to 20 | CCN(C(=O)c1nn(-c2nc3ccccc3s2)c(=O)c2c1c1ccccc1n2C)c1ccccc1 [Example 123, 3-(benzo[d]thiazol-2-yl)-N-ethyl-5-methyl-4-oxo-N-phenyl-4,5-dihydro-3H-pyridazino[4,5-b]indole-1-carboxamide]
> 20 | CCN(C(=O)c1nn(-c2nc3ccccc3n2C)c(=O)c2c1c1ccccc1n2C)c1ccccc1 [Example 124, N-ethyl-5-methyl-3-(1-methyl-1H-benzo[d]imidazol-2-yl)-4-oxo-N-phenyl-4,5-dihydro-3H-pyridazino[4,5-b]indole-1-carboxamide]
< 10 | CCN(C(=O)c1nn(-c2ccccc2F)c(=O)c2c1c1ccccc1n2C)c1ccccc1 [Example 125, N-ethyl-3-(2-fluorophenyl)-5-methyl-4-oxo-N-phenyl-4,5-dihydro-3H-pyridazino[4,5-b]indole-1-carboxamide]
< 10 | CCN(C(=O)c1nn(-c2ccccc2)c(=O)c2c1c1ccccc1n2C)c1cccc(F)c1 [Example 126, N-ethyl-N-(3-fluorophenyl)-5-methyl-4-oxo-3-phenyl-4,5-dihydro-3H-pyridazino[4,5-b]indole-1-carboxamide]
